Measurements published in patent US8569011B2, “Fluorescent derivatives of polyamines, method for preparing same and applications thereof as diagnosis tools in the treatment of cancerous tumors” (Pierre Fabre Medicament, priority 2007, dated 2013).

Legend:
CEM [1] = experiment: Cytotoxicity, residual ATP (ATPlite kit), 72 hours, CEM; type: cell-based; settings: Homo sapiens, CCRF-CEM, CEM leukemic line, 72 hours incubation
Procedure: (§1) An anticancer compound is used, a derivative of epipodophyllotoxin, whose intracellular penetration is dependent on the polyamine transporter, such as the compound described in example 27 of patent application WO 2005/100363 and, as reference compound, etoposide which is a non-vectored epipodophyllotoxin. These two compounds have the same mechanism of action on cancer cells: they are both inhibitors of topoisomerase 2.
(§2) A panel of leukemic lines was assayed to ascertain probe incorporation, here the one described in example 1, regarding the sensitivity to a vectored agent such as the compound in example 27 of patent application WO 2005/100363 and by comparison with non-vectored etoposide. After an incubation time of 72 hours with the compound of example 27 in patent application WO 2005/100363 or with etoposide, cytotoxicity was evaluated using the ATPlite kit. Cells from the same line were also incubated in the presence of the probe described in example 1, and were analyzed by flow cytometry. Fluorescence intensity measured at 525 nm was followed from 0 to 1 hour 30 minutes and the slope of intensity variation was calculated.

BL-41 [2] = experiment: Cytotoxicity, residual ATP (ATPlite kit), 72 hours, BL-41; type: cell-based; settings: Homo sapiens, BL-41 leukemic line, 72 hours incubation
Procedure: as §1, §2

BLUE-1 [3] = experiment: Cytotoxicity, residual ATP (ATPlite kit), 72 hours, BLUE-1; type: cell-based; settings: BLUE-1 leukemic line, 72 hours incubation
Procedure: as §1, §2

U-937 [4] = experiment: Cytotoxicity, residual ATP (ATPlite kit), 72 hours, U-937; type: cell-based; settings: Homo sapiens, U-937 leukemic line, 72 hours incubation
Procedure: as §1, §2

KG-1 [5] = experiment: Cytotoxicity, residual ATP (ATPlite kit), 72 hours, KG-1; type: cell-based; settings: Homo sapiens, KG-1 leukemic line, 72 hours incubation
Procedure: as §1, §2

CEM [6] = experiment: Fluorescent probe incorporation (polyamine transport activity) by flow cytometry, CEM; type: cell-based; settings: (cell intensity with probe presence) - (cell intensity without probe presence), emission 525 nm
Procedure: (§3) Cells taken from biopsies are mechanically separated with or without the presence of trypsin depending on the constitution of the tissue under consideration. The haematopoietic cells are separated and isolated following conventional preparation methods for blood cells. Once isolated after a fairly short time to ensure the viability of the cells being examined, the cells are placed in the presence of the probe such as synthesized in examples 1 to 3 for example, and left to incubate in the recommended culture medium for the tissue under consideration in the presence of aminoguanidine. Aminoguanidine is used to prevent in vitro denaturating of the polyamines. […] An incubation time of one to four hours is sufficient and allows detection of fluorescence by immunochemistry or flow cytometry, by choosing excitation and emission wavelengths compatible with the substituent of the fluorescent probe. This analysis is conducted by flow cytometry or histochemistry following standard methodology in the study described below, by exciting the probe obtained in example 1, N-(3-aminopropyl)-N′-{3-[methyl-(7-nitrobenzo[1,2,5]oxadiazol-4-yl)-amino]-propyl}-butane-1,4-diamine with a 488 nm source and measuring fluorescence emission at 525 nm. […]
(§4) For all the assayed lines, the capacity to incorporate the fluorescent probe, characterized by the fluorescence measured by flow cytometry, was also measured.

BL-41 [7] = experiment: Fluorescent probe incorporation (polyamine transport activity) by flow cytometry, BL-41; type: cell-based; settings: (cell intensity with probe presence) - (cell intensity without probe presence), emission 525 nm
Procedure: as §3, §4

BLUE-1 [8] = experiment: Fluorescent probe incorporation (polyamine transport activity) by flow cytometry, BLUE-1; type: cell-based; settings: (cell intensity with probe presence) - (cell intensity without probe presence), emission 525 nm
Procedure: as §3, §4

U-937 [9] = experiment: Fluorescent probe incorporation (polyamine transport activity) by flow cytometry, U-937; type: cell-based; settings: (cell intensity with probe presence) - (cell intensity without probe presence), emission 525 nm
Procedure: as §3, §4

KG-1 [10] = experiment: Fluorescent probe incorporation (polyamine transport activity) by flow cytometry, KG-1; type: cell-based; settings: (cell intensity with probe presence) - (cell intensity without probe presence), emission 525 nm
Procedure: as §3, §4

A549 cells = experiment: Selectivity of the probes vis-a-vis tumor cells: probe incorporation in A549 cells compared with MRC-5 cells; type: cell-based, human
Procedure: as §3

Work on `COc1cc([C@@H]2c3cc4c(cc3[C@@H](O[C@@H]3O[C@@H]5CO[C@@H](C)O[C@H]5[C@H](O)[C@H]3O)[C@H]3COC(=O)[C@H]23)OCO4)cc(OC)c1O` [Etoposide, etoposide] yielded an IC50 (CEM [1]) of 0.06 µM, an IC50 (BL-41 [2]) of 0.4 µM and an IC50 (BLUE-1 [3]) of 1 µM. For the same compound, the IC50 (U-937 [4]) was 0.4 µM and the IC50 (KG-1 [5]) was 5 µM.
In the case of `CN(CCCNCCCCNCCCN)c1ccc([N+](=O)[O-])c2nonc12` [Example 1, N-(3-aminopropyl)-N′-{3-(methyl-(7-nitrobenzo[1,2,5]oxadiazol-4-yl)-amino)-propyl}-butane-1,4-diamine], the Polyamine transport activity (CEM [6]) is reported as 421 Arbitrary Unit of fluorescence, the Polyamine transport activity (BL-41 [7]) is reported as 164 Arbitrary Unit of fluorescence and the Polyamine transport activity (BLUE-1 [8]) is reported as 58 Arbitrary Unit of fluorescence. For the same compound, the Polyamine transport activity (U-937 [9]) was 33 Arbitrary Unit of fluorescence, the Polyamine transport activity (KG-1 [10]) was 17 Arbitrary Unit of fluorescence and the “Incorporation differential tumoral cells versus healthy cells” value (A549 cells; flow cytometry, A549 vs MRC-5) was “confirmed by flow cytometry”. For the same compound, the “Incorporation of the probe in tumoral cells versus cells from healthy tissue” value (A549 cells; fluorescence microscope, slide cultured cells, A549 (FIG. 1A) vs MRC-5 healthy lung (FIG. 1B), excitation 488 nm, emission 525 nm) was “much greater incorporation”.
